Data reported in ChEMBL document CHEMBL1201862, “PubChem BioAssay data set” (2004).
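Following 48 hours of exposure in 96-well plates, responses at five concentrations were used to interpolate endpoints linearly. GI50 = concentration required for 50% inhibition of growth.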 The source made the active and inactive calls. Rule as the data show it: active = GI50 up to about 1.1 µM and inactive = higher. Non-standard residues stand in square brackets, D forms with d. Residues, ends and D or L forms follow the SMILES beside them. ξ: configuration not given here. *: point of attachment. Cbz = O=C(OCc1ccccc1)*; ξK = NCCCCC(N)C(=O)O

What was measured:
Test in all cases: NCI-60 cell line screen, 48 h
[1] = system: UACC-62
[2] = system: MDA-N
[3] = system: SK-MEL-2
[4] = system: ACHN
[5] = system: PC-3
[6] = system: TK-10
[7] = system: CAKI-1
[8] = system: MDA-MB-435
[9] = system: DU-145
[10] = system: A498
[11] = system: HCT-116
[12] = system: OVCAR-5
[13] = system: NCI-H226
[14] = system: EKVX
[15] = system: HL-60
[16] = system: RPMI-8226
[17] = system: SN12C
[18] = system: MCF7

Measured: GI50

O=C(O)CCC(NC(=O)c1ccc(CNc2nc3cc(C(F)(F)F)ccc3nc2C(=O)O)cc1)C(=O)O (stereo unspecified)
inactive: [1] > 100 µM | [2] > 100 µM | [3] > 100 µM | [4] > 100 µM | [5] > 100 µM | [6] > 100 µM | [7] > 100 µM | [8] > 100 µM | [9] > 100 µM | [10] > 100 µM | [11] > 100 µM | [12] > 100 µM | [13] > 100 µM | [14] > 100 µM | [15] > 100 µM

CC(C)(C)OC(=O)n1cc(C2CNC(=O)C23CCC(=O)N3Cc2ccccc2)c2ccccc21 (stereo unspecified)
inactive: [1] 17.5 µM | [16] 18.7 µM | [2] 28.2 µM | [3] 17.2 µM | [5] 25.6 µM | [6] 17.1 µM | [7] 36.9 µM | [8] 20 µM | [9] 20.4 µM | [17] 16.7 µM | [10] 20 µM | [11] 32.7 µM | [12] 19.5 µM | [13] 19.9 µM | [18] 27.9 µM | [14] 22.4 µM | [15] 28.1 µM

CC(C)[C@@H]1CC[C@@H](C)C[C@H]1OC(=O)/C=C1/C2C=CC(O2)C1C(=O)O[C@@H]1C[C@H](C)CC[C@H]1C(C)C (stereo partly specified)
inactive: [1] > 100 µM | [16] > 100 µM | [2] > 100 µM | [4] > 100 µM | [5] 56 µM | [6] > 100 µM | [7] > 100 µM | [8] > 100 µM | [9] > 100 µM | [17] > 100 µM | [10] > 100 µM | [11] > 100 µM | [12] > 100 µM | [13] 28.4 µM | [18] 97.5 µM | [14] > 100 µM | [15] 30.5 µM

NCCCCC(NC(=O)OCc1ccccc1)C(=O)NCC(N)=O (stereo unspecified) (Cbz-[ξK]-Gly-NH2)
inactive: [1] > 100 µM | [16] > 100 µM | [2] > 100 µM | [3] > 100 µM | [4] > 100 µM | [5] > 100 µM | [7] > 100 µM | [8] > 100 µM | [9] > 100 µM | [17] > 100 µM | [10] > 100 µM | [11] > 100 µM | [12] > 100 µM | [13] > 100 µM | [18] > 100 µM | [14] > 100 µM

O=C1NCC2(CCN(CCCC3(c4ccc(F)cc4)OCCO3)CC2)N1c1ccccc1
inactive: [1] > 100 µM | [16] > 100 µM | [2] > 100 µM | [3] > 100 µM | [4] > 100 µM | [5] > 100 µM | [6] > 100 µM | [7] 50.1 µM | [8] > 100 µM | [9] > 100 µM | [17] > 100 µM | [10] 86.3 µM | [11] > 100 µM | [12] > 100 µM | [13] > 100 µM | [14] > 100 µM | [15] > 100 µM

C[C@]12CC[C@H](O)CC1CCC[C@@H]2O (stereo partly specified)
inactive: [1] > 100 µM | [16] > 100 µM | [3] > 100 µM | [6] > 100 µM | [7] > 100 µM | [17] > 100 µM | [10] > 100 µM | [11] > 100 µM | [14] > 100 µM | [15] > 100 µM

N#CCCC(CC#N)N1CCN(CCO)CC1 (stereo unspecified)
inactive: [1] > 100 µM | [16] > 100 µM | [4] > 100 µM | [6] > 100 µM | [8] > 100 µM | [9] > 100 µM | [17] > 100 µM | [10] > 100 µM | [11] > 100 µM | [12] > 100 µM | [13] > 100 µM | [18] > 100 µM | [14] > 100 µM | [15] > 100 µM
